Read-outs that look alike come from different tables or passages of the source.
Test: Ex vivo biodistribution in tumor-bearing nude mice (non-tumor tissues)
Details: male, Balb/cAnNRj-Foxn1nu/nu (nude), mouse, iv, total radioactivity, ex vivo after PET/CT scan, i.v., n = 3
Protocol: For the evaluation of the in vivo pharmacokinetics, the two most promising HBPLs—[^18F]2 with the highest affinity to both target receptors and [^18F]4 with the highest hydrophilicity and still reasonable binding affinities—were selected. For PET/CT imaging, 6-week-old male nude mice (Balb/cAnNRj-Foxn1^nu/nu) were subcutaneously injected with 5 × 10^5 B16F10 cells into the right flank and 2.0–2.5 × 10^6 U87MG cells into the left flank to generate the respective receptor-positive tumors. When the tumors reached a sufficient size for imaging, each mouse was administered 4.15 ± 2.28 MBq of [^18F]2 or 3.95 ± 2.06 MBq of [^18F]4 via the lateral tail vein under isoflurane anesthesia. To determine the receptor specificity of both peptide parts of the labeled HBPLs and their relative contribution to overall tumor uptake, blocking experiments were also performed. […] After i.v. injection of the tracers, a dynamic PET scan, followed by a CT scan, was performed. The resulting PET/CT images and time–activity curves (TACs) are depicted in Figure 6, Figure 7 and Figure 8. After completion of the diagnostic scans, the mice were sacrificed, their organs (blood, spleen, liver, kidney, pancreas, lung, heart, brain, bone, muscle, tail, tumors, stomach, colon and small intestine) were collected and measured in a γ-counter for ex vivo biodistribution (see Supplementary Materials Table S1 for detailed results).
Each male nude mouse (six weeks old) was injected subcutaneously with 5 × 10^5 B16F10 cells into the right flank and 2.0–2.5 × 10^6 U87MG cells into the left flank. The health status and tumor growth of the mice were monitored regularly until the animals could be examined after 15–21 days, depending on the tumor size. For the in vivo experiments, the ^18F-radiolabeled compound was diluted in 0.9% saline to give a final EtOH concentration of <10%. Each mouse was injected with 4.15 ± 2.28 MBq of [^18F]2 or 3.95 ± 2.06 MBq of [^18F]4 via the lateral tail vein under isoflurane anesthesia. […] Each ^18F-labeled compound was studied with or without blocking in at least three mice. Mice were measured under isoflurane anesthesia in a small PET/SPECT/CT animal imaging system. First, a dynamic PET scan was performed over 90 min and the scan was framed in 29 timeframes (10 × 1 min, 10 × 2 min, 6 × 5 min, 3 × 10 min). Images were reconstructed using 12 iterations, a maximum likelihood expectation maximization (MLEM) algorithm including corrections for scattered radiation and decay and a voxel size of 0.5 mm. All PET scans were immediately followed by CT acquisition at a voltage of 45 kV and a current of 400 μA. The images were reconstructed using the filtered back projection (FBP) algorithm with a voxel size of 250 μm. The analysis of the data, including the generation of TACs of the kidneys, liver and tumors and the MIPs, was performed via PMOD (v3.8). For ex vivo biodistribution, the mice were sacrificed directly after the PET/CT scan. Organs (blood, spleen, liver, kidneys, pancreas, lungs, heart, brain, bone, muscle, tail, tumors, stomach, colon and small intestine) were collected, weighed and their radioactivity measured in a γ-counter. The percentage injected dose per gram (% ID/g) of each tissue was calculated from the determined values, organ weights, reference values and injected activity.

## CCCC[C@H](NC(=O)CNC(=O)CNC(=O)CCOCCOCCOCCOCCC(=O)NCCCN(CCCNC(=O)CCOCCOCCOCCOCCC(=O)NCCCC[C@@H]1NC(=O)[C@@H](Cc2ccccc2)NC(=O)[C@H](CC(=O)O)NC(=O)CNC(=O)[C@H](CCCNC(=N)N)NC1=O)CC(=O)N[C@@H](CCCCNC(=O)CCC[N+](C)(C)Cc1ccc([Si](F)(C(C)(C)C)C(C)(C)C)cc1)C(N)=O)C(=O)N[C@H]1CC(=O)NCCCC[C@@H](C(N)=O)NC(=O)[C@H](Cc2c[nH]c3ccccc23)NC(=O)[C@H](CCCNC(=N)N)NC(=O)[C@@H](Cc2ccccc2)NC(=O)[C@H](Cc2c[nH]cn2)NC1=O [[^18F]2]
blood, NDP blocking (20 μg coinjected), read-out: ID/g, blood
  tissue uptake at 1.5 h: 0.84 ± 0.12 %ID/g
blood, c(RGDyK) blocking (200 μg coinjected), read-out: ID/g, blood
  tissue uptake at 1.5 h: 1.14 ± 0.15 %ID/g
blood, double blocking (NDP + c(RGDyK)), read-out: ID/g, blood
  tissue uptake at 1.5 h: 1.13 ± 0.1 %ID/g
blood, without blocking, read-out: ID/g, blood
  tissue uptake at 1.5 h: 0.99 ± 0.23 %ID/g
bone, NDP blocking (20 μg coinjected), read-out: ID/g, bone
  tissue uptake at 1.5 h: 9.74 ± 2.85 %ID/g
bone, c(RGDyK) blocking (200 μg coinjected), read-out: ID/g, bone
  tissue uptake at 1.5 h: 4.12 ± 0.73 %ID/g
bone, double blocking (NDP + c(RGDyK)), read-out: ID/g, bone
  tissue uptake at 1.5 h: 4.47 ± 1.57 %ID/g
bone, without blocking, read-out: ID/g, bone
  tissue uptake at 1.5 h: 8.01 ± 3.48 %ID/g
brain, NDP blocking (20 μg coinjected), read-out: ID/g, brain
  tissue uptake at 1.5 h: 0.13 ± 0.03 %ID/g
brain, c(RGDyK) blocking (200 μg coinjected), read-out: ID/g, brain
  tissue uptake at 1.5 h: 0.13 ± 0.05 %ID/g
brain, double blocking (NDP + c(RGDyK)), read-out: ID/g, brain
  tissue uptake at 1.5 h: 0.07 ± 0.01 %ID/g
brain, without blocking, read-out: ID/g, brain
  tissue uptake at 1.5 h: 0.18 ± 0.02 %ID/g
colon, NDP blocking (20 μg coinjected), read-out: ID/g, colon
  tissue uptake: 1.44 ± 0.34 %ID/g
colon, c(RGDyK) blocking (200 μg coinjected), read-out: ID/g, colon
  tissue uptake: 0.5 ± 0.07 %ID/g
colon, double blocking (NDP + c(RGDyK)), read-out: ID/g, colon
  tissue uptake: 0.63 ± 0.2 %ID/g
colon, without blocking, read-out: ID/g, colon
  tissue uptake: 1.58 ± 0.44 %ID/g
heart, NDP blocking (20 μg coinjected), read-out: ID/g, heart
  tissue uptake at 1.5 h: 1.06 ± 0.31 %ID/g
heart, c(RGDyK) blocking (200 μg coinjected), read-out: ID/g, heart
  tissue uptake at 1.5 h: 0.62 ± 0.09 %ID/g
heart, double blocking (NDP + c(RGDyK)), read-out: ID/g, heart
  tissue uptake at 1.5 h: 0.93 ± 0.18 %ID/g
heart, without blocking, read-out: ID/g, heart
  tissue uptake at 1.5 h: 1.24 ± 0.36 %ID/g
kidneys, NDP blocking (20 μg coinjected), read-out: ID/g, kidneys
  tissue uptake at 1.5 h: 17.3 ± 2.08 %ID/g
kidneys, c(RGDyK) blocking (200 μg coinjected), read-out: ID/g, kidneys
  tissue uptake at 1.5 h: 12.1 ± 2.3 %ID/g
kidneys, double blocking (NDP + c(RGDyK)), read-out: ID/g, kidneys
  tissue uptake at 1.5 h: 24 ± 6.34 %ID/g
kidneys, without blocking, read-out: ID/g, kidneys
  tissue uptake at 1.5 h: 13.2 ± 3.57 %ID/g
liver, NDP blocking (20 μg coinjected), read-out: ID/g, liver
  tissue uptake at 1.5 h: 14.9 ± 5.07 %ID/g
liver, c(RGDyK) blocking (200 μg coinjected), read-out: ID/g, liver
  tissue uptake at 1.5 h: 4.94 ± 1.39 %ID/g
liver, double blocking (NDP + c(RGDyK)), read-out: ID/g, liver
  tissue uptake at 1.5 h: 8.5 ± 2.71 %ID/g
liver, without blocking, read-out: ID/g, liver
  tissue uptake: 17.2 ± 6.58 %ID/g
lung, NDP blocking (20 μg coinjected), read-out: ID/g, lung
  tissue uptake at 1.5 h: 2.98 ± 0.87 %ID/g
lung, c(RGDyK) blocking (200 μg coinjected), read-out: ID/g, lung
  tissue uptake at 1.5 h: 1.07 ± 0.15 %ID/g
lung, double blocking (NDP + c(RGDyK)), read-out: ID/g, lung
  tissue uptake at 1.5 h: 1.3 ± 0.36 %ID/g
lung, without blocking, read-out: ID/g, lung
  tissue uptake at 1.5 h: 2.89 ± 1.04 %ID/g
muscle, NDP blocking (20 μg coinjected), read-out: ID/g, muscle
  tissue uptake at 1.5 h: 1.37 ± 0.26 %ID/g
muscle, c(RGDyK) blocking (200 μg coinjected), read-out: ID/g, muscle
  tissue uptake at 1.5 h: 0.38 ± 0.04 %ID/g
